Assay results from patent US20230405015A1, “SUBSTITUTED 3,6-DIHYDRO-2H-1,3,4-OXADIAZIN-2-ONES FOR THE TREATMENT OF SARCOMA” (Bayer Aktiengesellschaft, priority 2021, published 2023).
Values joined by “and” are separate entries in the source; they are usually repeats but may differ in a detail not shown here. Equal values may be shown once. “Also recorded” adds a separate entry of the source.

Experiments:
[1] = tested on: human sarcoma cell line G-292 clone A141B1; test: Cell proliferation measurement in vitro (Cell Titer Glo, 72 h); format: cell-based; conditions: G292, G-292 clone A141B1, 72 h, read-out: Anti-proliferation Target IC50
Method: The antiproliferative activity of the compounds of the general formula (I) was examined in vitro in the human sarcoma cell line G-292 clone A141B1 (from ATCC). For this purpose, the appropriate number of cells (1000) were plated in 384-well plates with appropriate growth medium McCoy's 5a Medium Modified, FCS 10% final (Biochrom; #S 0415); and incubated at 37° C. overnight. After 24 h, cells on one plate (0 h plate) were treated with 30 μl/cavity of CTG solution (Promega Cell Titer Glo (catalogue #G755B and G756B)) and incubated at room temperature for 10 min, and luminescence was measured by means of a VICTOR V (Perkin Elmer), in order to determine cell viability on commencement of treatment. The cells on the test plate were treated with a set of compounds of the general formula (I) as indicated below and incubated at 37° C. for 72 h. The compounds were added to the cells by means of an HP D300 digital dispenser in a 10-step 2.5-fold dilution series generally starting at a maximum final drug concentration of 100 nM. As control, the cells were treated with vehicle (DMSO at 0.3% final concentration). After 72 h, the cells were treated with 30 μl/cavity of CTG solution (Promega Cell Titer Glo (catalogue #G755B and G756B)) and incubated at room temperature for 10 min, and luminescence was measured by means of a VICTOR V (Perkin Elmer), in order to determine cell viability at the end of treatment. The percentage effect on cell growth and the IC50 derived therefrom were determined for each test substance using the values from the 0 h plate (=maximum inhibition) and the DMSO control (=minimum inhibition). The IC50 values were calculated using a 4-parameter fit.

[2] = tested on: sarcoma patient derived xenograft model SA4058 (Synovial Sarcoma); test: In vivo xenotransplantation model SA4058; parameters: species or system mice
Source text: (§1) The anti-tumor activities of (6S)-5-[4′-fluoro-2-(trifluoromethyl)biphenyl-4-yl]-6-methyl-3,6-dihydro-2H-1,3,4-oxadiazin-2-one was examined in murine xenotransplantation models of human cancer. For this purpose, mice were implanted subcutaneously with tumor pieces. At a mean tumor size of 20-40 mm^2 animals were randomized into treatment and control groups (at least n=10 animals/group) and treatment started with vehicle only or respective compound (formulation: 90% PEG400/10% Ethanol; application route: per os (“p.o.”), orally). The oral application volume was 10 ml/kg. In the case of twice daily treatments, the time interval between two applications per day was 6-7 h. The tumor size and the body weight were determined at least weekly. The tumor area was detected by means of an electronic caliper [length (mm)×width (mm)]. The experiment was ended when the study reached the pre-determined ethical endpoint based on German and European animal welfare regulations. In vivo anti-tumor efficacy is presented as T/C ratio at study end (Treatment/Control; mean tumor weight of treatment group/mean tumor weight of control group) in Table 2. A compound having a T/C below 0.5 is defined as active (i.e., effective). Statistical analysis was assessed using SigmaStat software. […]

[3] = tested on: sarcoma patient derived xenograft model SA10245 (Fibrous histiocytoma); test: In vivo xenotransplantation model SA10245; parameters: species or system mice
Source text: as §1

[4] = tested on: sarcoma patient derived xenograft model SA10199 (recurrent malignant solitary fibrous tumor); test: In vivo xenotransplantation model SA10199; parameters: species or system mice
Source text: as §1

[5] = tested on: sarcoma patient derived xenograft model SA3831 (Osteosarcoma); test: In vivo xenotransplantation model SA3831; parameters: species or system mice
Source text: as §1

[6] = tested on: sarcoma patient derived xenograft model SA16044 (Soft Tissue Sarcoma); test: In vivo xenotransplantation model SA16044; parameters: species or system mice; conditions: for T/C: SA16044 Soft Tissue Sarcoma PDX subcutaneous in mice, 10 mg/kg 2QD p.o., at study end
Source text: The anti-tumor activities of (6S)-5-[4′-fluoro-2-(trifluoromethyl)biphenyl-4-yl]-6-methyl-3,6-dihydro-2H-1,3,4-oxadiazin-2-one was examined in murine xenotransplantation models of human cancer. For this purpose, mice were implanted subcutaneously with tumor pieces. At a mean tumor size of 20-40 mm^2 animals were randomized into treatment and control groups (at least n=10 animals/group) and treatment started with vehicle only or respective compound (formulation: 90% PEG400/10% Ethanol; application route: per os (“p.o.”), orally). The oral application volume was 10 ml/kg. In the case of twice daily treatments, the time interval between two applications per day was 6-7 h. The tumor size and the body weight were determined at least weekly. The tumor area was detected by means of an electronic caliper [length (mm)×width (mm)]. The experiment was ended when the study reached the pre-determined ethical endpoint based on German and European animal welfare regulations. In vivo anti-tumor efficacy is presented as T/C ratio at study end (Treatment/Control; mean tumor weight of treatment group/mean tumor weight of control group) in Table 2. A compound having a T/C below 0.5 is defined as active (i.e., effective). Statistical analysis was assessed using SigmaStat software. A one-way analysis of variance was performed and differences to the control were compared by a pair-wise comparison procedure (Dunn's method).
Patient-derived xenograft models established by direct transplantation of fresh human tumors are considered to more closely resemble the heterogeneity of the actual human tumor compared to xenograft models established from cell lines that have been cultured in vitro for decades. The anti-tumor activity of (6S)-5-[4′-fluoro-2-(trifluoromethyl)biphenyl-4-yl]-6-methyl-3,6-dihydro-2H-1,3,4-oxadiazin-2-one was assessed in patient-derived xenograft models of sarcoma, a tumor type consisting of many subtypes and a high medical need due to absence of approved targeted therapies. The tumor models are originating from CrownBio.

`O=C1NN=C(c2ccc(N3CCC(F)(F)CC3)c(F)c2)CO1` [Example 1, 5-[4-(4,4-Difluoropiperidin-1-yl)-3-fluorophenyl]-3,6-dihydro-2H-1,3,4-oxadiazin-2-one] was tested. Which IC50 [1] did it give?
Its IC50 is 26 nM.

How did the IC50 [1] turn out when `O=C1NN=C(c2ccc(-c3ccc(F)cc3)c(C(F)(F)F)c2)CO1` [Example 3, 5-[4'-Fluoro-2-(trifluoromethyl)biphenyl-4-yl]-3,6-dihydro-2H-1,3,4-oxadiazin-2-one] was run?
Its IC50 is 38.2 nM.

`O=C1NN=C(c2ccc(N3CCOCC3)c(F)c2)CO1` [Example 4, 5-[3-Fluoro-4-(morpholin-4-yl)phenyl]-3,6-dihydro-2H-1,3,4-oxadiazin-2-one] was tested. Which IC50 [1] did it give?
Its IC50 is 103 nM.

`Cc1cc(C2=NNC(=O)OC2)ccc1-c1ccc(F)cc1` [Example 7, 5-(4'-Fluoro-2-methylbiphenyl-4-yl)-3,6-dihydro-2H-1,3,4-oxadiazin-2-one] was tested. Which IC50 [1] did it give?
Its IC50 is 49.6 nM.

With `Cc1cc(C2=NNC(=O)OC2)ccc1-c1ccc(F)c(F)c1` [Example 8, 5-(3',4'-Difluoro-2-methylbiphenyl-4-yl)-3,6-dihydro-2H-1,3,4-oxadiazin-2-one] as the molecule, how does the IC50 [1] read?
The IC50 was 96.8 nM.

With `O=C1NN=C(c2ccc(-c3ccc(C(F)F)cc3)c(F)c2)CO1` [Example 92, 5-[4'-(Difluoromethyl)-2-fluoro[1,1'-biphenyl]-4-yl]-3,6-dihydro-2H-1,3,4-oxadiazin-2-one] as the molecule, how does the IC50 [1] read?
Its IC50 is 35.1 nM.

`C[C@@H]1OC(=O)NN=C1c1ccc(-c2ccc(F)cc2)c(C(F)(F)F)c1` [Example 135, (6S)-5-[4'-Fluoro-2-(trifluoromethyl)biphenyl-4-yl]-6-methyl-3,6-dihydro-2H-1,3,4-oxadiazin-2-one] was tested. Which “anti-tumor efficacy (in words)” value ([2]; SA4058 PDX in mice, versus vehicle, unpaired t-test) did it give?
Its value is “significant anti-tumor efficacy; also recorded: strong tumor-growth inhibition”.

What about the T/C ([2]; SA4058 Synovial Sarcoma PDX subcutaneous in mice, 10 mg/kg 2QD p.o., at study end) of the same molecule?
The T/C was 0.12.

And the T/C ([3]; SA10245 Fibrous histiocytoma PDX subcutaneous in mice, 10 mg/kg 2QD p.o., at study end)?
Its T/C is 0.73.

And the “anti-tumor efficacy (in words)” value ([3]; SA10245 PDX in mice, versus vehicle, unpaired t-test)?
Its value is “non-significant signs of anti-tumor efficacy; also recorded: least sensitive model”.

What about the “anti-tumor efficacy (in words)” value ([4]; SA10199 PDX in mice, versus vehicle, unpaired t-test) of the same molecule?
The value was “significant anti-tumor efficacy; also recorded: moderate tumor-growth inhibition”.

And the T/C ([4]; SA10199 Sarcoma (recurrent malignant solitary fibrous tumor) PDX subcutaneous in mice, 10 mg/kg 2QD p.o., at study end, listed as (6S)-5-[4'-fluoro-2-(trifluoromethyl)biphenyl-4-yl]-6-methyl-3,6-dihydro-2H-1,3, 10 mg/kg)?
Its T/C is 0.34.

What about the T/C ([5]; SA3831 Osteosarcoma PDX subcutaneous in mice, 10 mg/kg 2QD p.o., at study end) of the same molecule?
The T/C was 0.01.

What about the “anti-tumor efficacy (in words)” value ([5]; SA3831 PDX in mice, versus vehicle, unpaired t-test) of the same molecule?
The value was “strong tumor-growth inhibition; also recorded: significant anti-tumor efficacy”.

What about the “anti-tumor efficacy (in words)” value ([6]; SA16044 PDX in mice, versus vehicle, unpaired t-test) of the same molecule?
The value was “significant anti-tumor efficacy; also recorded: moderate tumor-growth inhibition”.

What about the T/C ([6]; listed as (6S)-5-[4'-fluoro-2-(trifluoromethyl)biphenyl-4-yl]-6-methyl-3,6-dihydro-2H-1,3, 10 mg/kg) of the same molecule?
The T/C was 0.33.

And the T/C ([6]; listed as (6S)-5-[4′-fluoro-2-(trifluoromethyl)biphenyl-4-yl]-6-methyl-3,6-dihydro-2H-1,3, 10 mg/kg)?
The T/C was 0.35 and 0.33.

And the IC50 [1]?
The IC50 was 17.6 nM.

Which IC50 [1] does the source give for `Cc1ccc(C2=NNC(=O)OC2)cc1C(F)(F)F` [Example 139, 5-[4-Methyl-3-(trifluoromethyl)phenyl]-3,6-dihydro-2H-1,3,4-oxadiazin-2-one] here?
Its IC50 is 193 nM.

Which IC50 [1] does the source give for `O=C1NN=C(c2ccc(-c3cnn(C(F)F)c3)c(C(F)(F)F)c2)CO1` [Example 146, 5-{4-[1-(Difluoromethyl)-1H-pyrazol-4-yl]-3-(trifluoromethyl)phenyl}-3,6-dihydro-2H-1,3,4-oxadiazin-2-one] here?
Its IC50 is 12.5 nM.

For `C[C@@H]1OC(=O)NN=C1c1ccc(-n2ccc(C(F)(F)F)n2)c(C(F)(F)F)c1` [Example 265, (6S)-6-Methyl-5-{3-(trifluoromethyl)-4-[3-(trifluoromethyl)-1H-pyrazol-1-yl]phenyl}-3,6-dihydro-2H-1,3,4-oxadiazin-2-one], which IC50 [1] is on record?
The IC50 was 37.2 nM.

With `COCCCc1ccc(C2=NNC(=O)OC2)cc1C(F)(F)F` [Example 267, 5-[4-(3-Methoxypropyl)-3-(trifluoromethyl)phenyl]-3,6-dihydro-2H-1,3,4-oxadiazin-2-one] as the molecule, how does the IC50 [1] read?
The IC50 was 16.8 nM.

Which IC50 [1] does the source give for `CC(C)(C)CCc1ccc(C2=NNC(=O)OC2)cc1C(F)(F)F` [Example 269, 5-[4-(3,3-Dimethylbutyl)-3-(trifluoromethyl)phenyl]-3,6-dihydro-2H-1,3,4-oxadiazin-2-one] here?
The IC50 was 85.7 nM.

With `C[C@@H]1OC(=O)NN=C1c1ccc(N2CCN(C)CC2)c(C(F)(F)F)c1` [Example 277, (6S)-6-Methyl-5-[4-(4-methylpiperazin-1-yl)-3-(trifluoromethyl)phenyl]-3,6-dihydro-2H-1,3,4-oxadiazin-2-one] as the molecule, how does the IC50 [1] read?
The IC50 was 604 nM.
